Results on eleven molecules are retold here after ChEMBL document CHEMBL1123599, “Diketopiperazines as a new class of platelet-activating factor inhibitors” (J Med Chem, 1987).

One may read the IC50 as the concentration needed to halve the response being measured. A high value points to weaker potency in that assay.

The species entered for the assay is Oryctolagus cuniculus. Put plainly: Inhibition of rabbit platelet aggregation induced by PAF (Platelet activating factor). The assay is classed as functional.
Turning to `CSC[C@H]1NC(=O)[C@@H](Cc2cn(C)c3ccccc23)NC1=O`, the IC50 was 7900 nM. For the molecule `CSCC[C@H]1NC(=O)[C@@H]([C@@H](C)c2cccc3ccccc23)NC1=O`, the IC50 came out at 1900 nM.

`CSCC[C@H]1NC(=O)[C@@H]([C@@H](C)c2cn(C)c3ccccc23)NC1=O` showed an IC50 of 3600 nM. On to `CSC[C@@H]1NC(=O)[C@@H](Cc2cn(C)c3ccccc23)NC1=O`, for which it took 36000 nM to reach half-maximal inhibition (IC50). The result for `CSCC[C@H]1NC(=O)[C@@H]([C@H](C)c2cccc3ccccc23)NC1=O` reads 180 nM; that for `CSCC[C@H]1NC(=O)[C@@H]([C@H](C)c2cn(C)c3ccccc23)NC1=O`, 700 nM; that for `CSC[C@@H]1N=C(C2=C(O)C=CC2)[C@H]([C@@H](C)[C@@H]2C(=O)N(C)c3ccccc32)NC1=O`, 370 nM. The result for `COc1cc([C@H]2CC[C@H](c3cc(OC)c(OC)c(OC)c3)O2)cc(OC)c1OC` reads 320 nM; that for `CSC[C@H]1NC(=O)[C@H](Cc2cn(C)c3ccccc23)NC1=O`, 140000 nM. `CSC[C@@H]1NC(=O)[C@H](Cc2cn(C)c3ccccc23)NC1=O` returned an IC50 of 250000 nM. As for `CSCCC1NC(=O)C(Cc2cn(C)c3ccccc23)NC1=O` (stereo unspecified), half-maximal inhibition (IC50) required 2300 nM.
